{"source": "DBAASP", "test_in_all_cases": "≥ marks a high value that may be exact or a test limit, other limits are often not marked, values filed in µg/mL are converted to µM", "key": {"[1]": {"test_system": "Micrococcus luteus 1D00051"}, "[2]": {"test_system": "Staphylococcus aureus 1D00101"}, "[3]": {"test_system": "Vibrio ichthyoenteri 1A00057"}, "Vibrio litoralis H1": {"test_system": "Vibrio litoralis H1"}, "Vibrio scophthalmi ZS1": {"test_system": "Vibrio scophthalmi ZS1"}, "[4]": {"test_system": "Vibrio vulnificus 1H00066"}, "Acinetobacter baumannii": {"test_system": "Acinetobacter baumannii"}, "Candida albicans": {"test_system": "Candida albicans"}, "Candida glabrata": {"test_system": "Candida glabrata"}, "Candida tropicalis": {"test_system": "Candida tropicalis"}, "[5]": {"test_system": "Pseudomonas aeruginosa ATCC 10662"}, "[6]": {"test_system": "Staphylococcus aureus ATCC 25923"}, "Staphylococcus aureus": {"test_system": "Staphylococcus aureus"}, "[7]": {"test_system": "Acinetobacter baumannii B2367-12"}, "[8]": {"test_system": "Enterobacter cloacae B2366-12"}, "[9]": {"test_system": "Enterococcus faecium ATCC 51559"}, "[10]": {"test_system": "Klebsiella pneumoniae ATCC 13883"}, "[11]": {"test_system": "Pseudomonas aeruginosa PAO1"}, "[12]": {"test_system": "Staphylococcus aureus USA 300"}, "[13]": {"test_system": "Agrobacterium tumefaciens GV3101"}, "Methylobacterium sp.": {"test_system": "Methylobacterium sp."}, "[14]": {"test_system": "Sinorhizobium meliloti USDA 1002"}, "Xanthomonas citri": {"test_system": "Xanthomonas citri"}, "[15]": {"test_system": "Bacillus megaterium VKM41"}, "[16]": {"test_system": "Bacillus subtilis VKM B-886"}, "[17]": {"test_system": "Escherichia coli BL21(DE3)"}, "Escherichia coli C600": {"test_system": "Escherichia coli C600"}, "Escherichia coli ML-35p": {"test_system": "Escherichia coli ML-35p"}, "[18]": {"test_system": "Micrococcus luteus VKM B-1314"}, "[19]": {"test_system": "Staphylococcus aureus 209P"}, "[20]": {"test_system": "Staphylococcus aureus ATCC 29213"}, "[21]": {"test_system": "Acinetobacter baumannii ATCC 19606"}, "[22]": {"test_system": "Bacillus subtilis ATCC 6051"}, "[23]": {"test_system": "Candida albicans ATCC 90028"}, "[24]": {"test_system": "Cryptococcus neoformans ATCC 208821"}, "[25]": {"test_system": "Escherichia coli ATCC 25922"}, "[26]": {"test_system": "Klebsiella pneumoniae ATCC 700603"}, "[27]": {"test_system": "Klebsiella pneumoniae ATCC BAA-2146"}, "Klebsiella pneumoniae": {"test_system": "Klebsiella pneumoniae"}, "[28]": {"test_system": "Pseudomonas aeruginosa ATCC 27853"}, "Pseudomonas aeruginosa": {"test_system": "Pseudomonas aeruginosa"}, "[29]": {"test_system": "Staphylococcus aureus ATCC 43300"}}}
{"smiles": "CSCC[C@H](NC(=O)[C@H](CCCN=C(N)N)NC(=O)[C@H](Cc1cnc[nH]1)NC(=O)CNC(=O)[C@H](CCCCN)NC(=O)CNC(=O)[C@H](CCC(N)=O)NC(=O)[C@H](CCCN=C(N)N)NC(=O)[C@H](CCCCN)NC(=O)[C@H](Cc1ccc(O)cc1)NC(=O)[C@H](CCCCN)NC(=O)[C@H](CCCCN)NC(=O)CNC(=O)CNC(=O)[C@H](CCCCN)NC(=O)[C@@H](NC(=O)[C@@H](N)CS)C(C)C)C(=O)N[C@@H](CCCN=C(N)N)C(=O)N[C@@H](CCCN=C(N)N)C(=O)N[C@@H](Cc1ccc(O)cc1)C(=O)N[C@@H](CCCN=C(N)N)C(=O)N[C@@H](CC(N)=O)C(=O)N[C@@H](CC(N)=O)C(=O)N[C@@H](Cc1cnc[nH]1)C(=O)O", "note": "[CVKGGKKYKRQGKGHRMRRYRNNH]", "values": [{"measurement": "MIC", "setting": "[1]", "result": 3, "unit": "µM"}, {"measurement": "MIC", "setting": "[2]", "result": 6, "unit": "µM"}, {"measurement": "MIC", "setting": "[3]", "result": "≥ 85", "unit": "µM"}, {"measurement": "MIC", "setting": "Vibrio litoralis H1", "result": 11, "unit": "µM"}, {"measurement": "MIC", "setting": "Vibrio scophthalmi ZS1", "result": "≥ 340", "unit": "µM"}, {"measurement": "MIC", "setting": "[4]", "result": "≥ 170", "unit": "µM"}]}
{"smiles": "CC[C@H](C)[C@H](NC(=O)[C@H](C)NC(=O)[C@H](CCCCN)NC(=O)[C@H](C)NC(=O)CNC(=O)[C@H](CCCN=C(N)N)NC(=O)[C@H](CC(C)C)NC(=O)[C@H](CC(C)C)NC(=O)[C@H](CO)NC(=O)[C@H](CCCN=C(N)N)NC(=O)[C@H](CC(C)C)NC(=O)[C@@H](N)Cc1ccccc1)C(=O)N[C@@H](Cc1ccc(O)cc1)C(=O)N[C@@H](CCCN=C(N)N)C(=O)NCC(=O)N[C@@H](C)C(=O)N[C@@H](CCCN=C(N)N)C(=O)N[C@@H](C)C(=O)NCC(=O)N[C@@H](Cc1c[nH]c2ccccc12)C(=O)N[C@@H](CCCN=C(N)N)C(=O)NCC(N)=O", "note": "[FLRSLLRGAKAIYRGARAGWRG]", "values": [{"measurement": "MIC", "setting": "Acinetobacter baumannii", "result": 7.27, "unit": "µM"}, {"measurement": "MIC", "setting": "Candida albicans", "result": 2.67, "unit": "µM"}, {"measurement": "MIC", "setting": "Candida glabrata", "result": "≥ 60.6", "unit": "µM"}, {"measurement": "MIC", "setting": "Candida tropicalis", "result": 2.67, "unit": "µM"}, {"measurement": "MIC", "setting": "[5]", "result": 15.1, "unit": "µM"}, {"measurement": "MIC", "setting": "[6]", "result": 1.89, "unit": "µM"}, {"measurement": "MIC", "setting": "Staphylococcus aureus", "result": 1.89, "unit": "µM"}]}
{"smiles": "CC(C)C[C@H](NC(=O)[C@H](CC(N)=O)NC(=O)[C@H](CCCN=C(N)N)NC(=O)[C@@H](CC(C)C)NC(=O)[C@H](Cc1ccccc1)NC(=O)[C@H](CC(=O)O)NC(=O)[C@H](CCCCN)NC(=O)[C@@H](CC(C)C)NC(=O)[C@H](CCCN=C(N)N)NC(=O)[C@H](CCC(N)=O)NC(=O)[C@@H](NC(=O)[C@@H](CC(C)C)NC(=O)[C@H](CCCN=C(N)N)NC(=O)[C@H](CCCCN)NC(=O)[C@H](Cc1ccccc1)NC(=O)CN)C(C)C)C(=O)N[C@H](C(N)=O)C(C)C", "note": "[GFKRLVQRLKDFLRNLV]", "values": [{"measurement": "MIC", "setting": "[7]", "result": 8.8, "unit": "µM"}, {"measurement": "MIC", "setting": "[8]", "result": 25, "unit": "µM"}, {"measurement": "MIC", "setting": "[9]", "result": "≥ 100", "unit": "µM"}, {"measurement": "MIC", "setting": "[10]", "result": "≥ 100", "unit": "µM"}, {"measurement": "MIC", "setting": "[11]", "result": 100, "unit": "µM"}, {"measurement": "MIC", "setting": "[12]", "result": "≥ 100", "unit": "µM"}]}
{"smiles": "CC[C@H](C)[C@H](N)C(=O)N[C@@H](CCC(=O)O)C(=O)N[C@H](C(=O)N[C@@H](Cc1ccccc1)C(=O)N[C@@H](CC(C)C)C(=O)N[C@@H](CCCCN)C(=O)N[C@@H](CCC(N)=O)C(=O)N[C@@H](CC(C)C)C(=O)N[C@@H](CCCN=C(N)N)C(=O)N[C@@H](CO)C(=O)N[C@@H](C)C(=O)N[C@@H](C)C(=O)N[C@@H](CC(N)=O)C(=O)N[C@@H](CCCCN)C(=O)N[C@H](C(=O)N[C@H](C(=O)NCC(=O)N[C@@H](CC(C)C)C(=O)O)C(C)C)[C@@H](C)CC)[C@@H](C)O", "note": "[IETFLKQLRSAANKIVGL]", "values": [{"measurement": "MIC", "setting": "[13]", "result": "≥ 64", "unit": "µM"}, {"measurement": "MIC", "setting": "Methylobacterium sp.", "result": "≥ 64", "unit": "µM"}, {"measurement": "MIC", "setting": "[14]", "result": "≥ 64", "unit": "µM"}, {"measurement": "MIC", "setting": "Xanthomonas citri", "result": "≥ 32", "unit": "µM"}]}
{"smiles": "CC[C@H](C)[C@H](N)C(=O)N[C@@H](CCCCN)C(=O)N[C@@H](CC(N)=O)C(=O)N[C@@H](C)C(=O)N[C@@H](CCCCN)C(=O)N[C@H](C(=O)N[C@H]1CSSC[C@@H](C(=O)N[C@H](C(=O)N[C@@H](CO)C(=O)N[C@@H](Cc2cnc[nH]2)C(=O)N[C@@H](CCCCN)C(=O)O)C(C)C)NC(=O)[C@H](C(C)C)NC(=O)[C@H](C)NC(=O)[C@H](Cc2ccc(O)cc2)NC(=O)[C@H](C(C)C)NC1=O)C(C)C", "note": "[IKNAKVCVYAVCVSHK]", "values": [{"measurement": "MIC", "setting": "Acinetobacter baumannii", "result": "≥ 64", "unit": "µM"}, {"measurement": "MIC", "setting": "[15]", "result": 16, "unit": "µM"}, {"measurement": "MIC", "setting": "[16]", "result": 16, "unit": "µM"}, {"measurement": "MIC", "setting": "[17]", "result": "≥ 64", "unit": "µM"}, {"measurement": "MIC", "setting": "Escherichia coli C600", "result": "≥ 64", "unit": "µM"}, {"measurement": "MIC", "setting": "Escherichia coli ML-35p", "result": "≥ 64", "unit": "µM"}, {"measurement": "MIC", "setting": "[18]", "result": 16, "unit": "µM"}, {"measurement": "MIC", "setting": "[11]", "result": "> 128", "unit": "µM"}, {"measurement": "MIC", "setting": "[19]", "result": 16, "unit": "µM"}, {"measurement": "MIC", "setting": "[20]", "result": "> 128", "unit": "µM"}]}
{"smiles": "CC[C@H](C)[C@@H]1NC(=O)CNC(=O)[C@H](CCCN=C(N)N)NC(=O)[C@H](Cc2ccc(O)cc2)NC(=O)[C@@H](NC(=O)[C@@H](NC(=O)[C@H](CCCN=C(N)N)NC(=O)[C@H](Cc2ccccc2)NC(=O)[C@H](CO)NC(=O)[C@H](Cc2c[nH]c3ccccc23)NC(=O)[C@@H](N)CCCCN)C(C)C)CSSC[C@@H](C(=O)N[C@@H](Cc2ccc(O)cc2)C(=O)N[C@@H](CCCN=C(N)N)C(=O)N[C@@H](CCCN=C(N)N)C(=O)N[C@@H](C)C(=O)N[C@@H](CCCN=C(N)N)C(=O)O)NC1=O", "note": "[KWSFRVCYRGICYRRAR]", "values": [{"measurement": "MIC", "setting": "[21]", "result": 0.113, "unit": "µM"}, {"measurement": "MIC", "setting": "Acinetobacter baumannii", "result": 0.113, "unit": "µM"}, {"measurement": "MIC", "setting": "[22]", "result": 0.0563, "unit": "µM"}, {"measurement": "MIC", "setting": "[23]", "result": 1.8, "unit": "µM"}, {"measurement": "MIC", "setting": "[24]", "result": 0.113, "unit": "µM"}, {"measurement": "MIC", "setting": "[25]", "result": 0.113, "unit": "µM"}, {"measurement": "MIC", "setting": "[10]", "result": 0.45, "unit": "µM"}, {"measurement": "MIC", "setting": "[26]", "result": 0.901, "unit": "µM"}, {"measurement": "MIC", "setting": "[27]", "result": 0.45, "unit": "µM"}, {"measurement": "MIC", "setting": "Klebsiella pneumoniae", "result": 7.21, "unit": "µM"}, {"measurement": "MIC", "setting": "[28]", "result": 0.45, "unit": "µM"}, {"measurement": "MIC", "setting": "Pseudomonas aeruginosa", "result": 1.8, "unit": "µM"}, {"measurement": "MIC", "setting": "[29]", "result": 1.8, "unit": "µM"}]}
